Measurements reported in patent US20110130380A1, “Heteroaryl Kinase Inhibitors” (priority 2009, published 2011).

target: Cdk9/cyclinT1 (Homo sapiens, UniProt P50750); experiment: Cdk9/cyclinT1 IMAP Protocol (fluorescence polarization kinase assay); settings: Cdk9_cyclinT1_IC50, Table V; generated using one of the two Cdk9/cyclinT1 assays (IMAP or Alpha Screen), not stated which; ATP 6 uM
Sequence (P50750 whole entry): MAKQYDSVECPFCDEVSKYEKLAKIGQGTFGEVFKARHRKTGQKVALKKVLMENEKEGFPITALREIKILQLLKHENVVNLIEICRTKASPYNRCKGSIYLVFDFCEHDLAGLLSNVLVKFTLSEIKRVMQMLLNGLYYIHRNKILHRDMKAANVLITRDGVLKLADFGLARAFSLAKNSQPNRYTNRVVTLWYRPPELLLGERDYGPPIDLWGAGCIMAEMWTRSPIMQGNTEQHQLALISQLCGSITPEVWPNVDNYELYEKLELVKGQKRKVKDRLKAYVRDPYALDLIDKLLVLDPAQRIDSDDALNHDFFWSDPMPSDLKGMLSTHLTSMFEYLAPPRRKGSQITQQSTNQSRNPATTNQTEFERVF
Sequence (O60563 whole entry partner): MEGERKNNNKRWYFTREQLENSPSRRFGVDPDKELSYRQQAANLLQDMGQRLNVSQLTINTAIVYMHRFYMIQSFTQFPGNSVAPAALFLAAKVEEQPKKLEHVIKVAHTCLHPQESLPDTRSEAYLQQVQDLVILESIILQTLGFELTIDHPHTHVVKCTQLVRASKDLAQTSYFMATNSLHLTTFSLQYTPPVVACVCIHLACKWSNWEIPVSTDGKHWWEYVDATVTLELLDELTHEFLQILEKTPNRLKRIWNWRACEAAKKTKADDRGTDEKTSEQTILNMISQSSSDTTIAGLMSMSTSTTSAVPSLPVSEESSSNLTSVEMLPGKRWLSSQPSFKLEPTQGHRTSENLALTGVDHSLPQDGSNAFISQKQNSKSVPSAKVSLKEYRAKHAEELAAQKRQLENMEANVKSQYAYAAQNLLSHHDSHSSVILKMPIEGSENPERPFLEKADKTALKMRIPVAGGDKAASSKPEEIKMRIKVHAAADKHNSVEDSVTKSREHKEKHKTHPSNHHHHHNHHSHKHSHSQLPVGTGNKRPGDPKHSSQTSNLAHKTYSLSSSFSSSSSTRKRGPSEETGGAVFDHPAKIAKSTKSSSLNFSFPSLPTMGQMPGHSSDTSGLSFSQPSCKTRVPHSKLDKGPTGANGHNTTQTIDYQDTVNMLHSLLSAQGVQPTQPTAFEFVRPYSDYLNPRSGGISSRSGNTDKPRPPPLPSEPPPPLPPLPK

Row | Structure (SMILES) | IC50
1 | CC(C)CCNc1cccc(-c2cc(NC(=O)[C@@H]3CCCNC3)ncc2Cl)n1 [Example 23, (R)-Piperidine-3-carboxylic acid [5′-chloro-6-(3-methyl-butylamino)-[2,4′]bipyridinyl-2′-yl]-amide] | 9 nM
2 | O=C(Nc1cc(-c2nc(NCC3CCOCC3)ccc2Cl)c(Cl)cn1)C1CCOCC1 [Example 97, Tetrahydro-pyran-4-carboxylic acid {3,5′-dichloro-6-[(tetrahydro-pyran-4-ylmethyl)-amino]-[2,4′]bipyridinyl-2′-yl}-amide] | 10 nM
3 | C[C@@H](Nc1cccc(-c2cc(NC(=O)[C@@H]3CCCNC3)ncc2Cl)n1)C1CCOCC1 [Example 137, (R)-Piperidine-3-carboxylic acid {5′-chloro-6-[(R)-1-(tetrahydro-pyran-4-yl)-ethylamino]-[2,4′]bipyridinyl-2′-yl}-amide] | 11 nM
4 | O=C(Nc1cc(-c2cccc(NCC3CCOCC3)n2)c(Cl)cn1)[C@H]1CCNC1 [Example 73, (S)-Pyrrolidine-3-carboxylic acid {5′-chloro-6-[(tetrahydro-pyran-4-ylmethyl)-amino]-[2,4′]bipyridinyl-2′-yl}-amide] | 13 nM
5 | COC(=O)N1CCC[C@H](C(=O)Nc2cc(-c3cccc(NCC4CCOCC4)n3)c(Cl)cn2)C1 [Example 90, (S)-3-{5′-Chloro-6-[(tetrahydro-pyran-4-ylmethyl)-amino]-[2,4′]bipyridinyl-2′-ylcarbamoyl}-piperidine-1-carboxylic acid methyl ester] | 8 nM
6 | O=C(Nc1cc(-c2cccc(N3CCOCC3)n2)c(Cl)cn1)[C@@H]1CCCNC1 [Example 45, (R)-Piperidine-3-carboxylic acid (5′-chloro-6-morpholin-4-yl-[2,4′]bipyridinyl-2′-yl)-amide] | 154 nM
7 | O=C(Nc1cc(-c2cccc(NCC3CCOCC3)n2)c(Cl)cn1)[C@H]1CCCNC1 [Example 8, (S)-Piperidine-3-carboxylic acid {5′-chloro-6-[(tetrahydro-pyran-4-ylmethyl)-amino]-[2,4′]bipyridinyl-2′-yl}-amide] | 46 nM
8 | C[C@@H](Nc1cccc(-c2cc(NC(=O)[C@@H]3CCCNC3)ncc2Cl)n1)C1CCCCC1 [Example 76, (R)-Piperidine-3-carboxylic acid [5′-chloro-6-((R)-1-cyclohexyl-ethylamino)-[2,4′]bipyridinyl-2′-yl]-amide] | 15 nM
9 | CC[C@H]1CC[C@H](C(=O)Nc2cc(-c3cccc(NCC4CCOCC4)n3)c(Cl)cn2)CN1 (single isomer, unassigned) [Example 241] | 9 nM
10 | O=C(Nc1cc(-c2cccc(NCC3COCCO3)n2)c(Cl)cn1)[C@@H]1CCCNC1 (stereo partly drawn) [Example 24, (R)-Piperidine-3-carboxylic acid {5′-chloro-6-[([1,4]dioxan-2-ylmethyl)-amino]-[2,4′]bipyridinyl-2′-yl}-amide] | < 8 nM
11 | O=C(Nc1cc(-c2nc(NCC3CCOCC3)ccc2Cl)c(Cl)cn1)[C@@H]1CCNC1 [Example 88, (R)-Pyrrolidine-3-carboxylic acid {3,5′-dichloro-6-[(tetrahydro-pyran-4-ylmethyl)-amino]-[2,4′]bipyridinyl-2′-yl}-amide] | < 8 nM

The next lines start with the values.

Row | IC50 | Structure (SMILES)
12 | < 8 nM | CO[C@H]1CNC[C@@H]1C(=O)Nc1cc(-c2cccc(NCC3CCOCC3)n2)c(Cl)cn1 [Example 138, (3S,4R)-4-Methoxy-pyrrolidine-3-carboxylic acid {5′-chloro-6-[(tetrahydro-pyran-4-ylmethyl)-amino]-[2,4′]bipyridinyl-2′-yl}-amide]
13 | 4 nM | CC1(C)C[C@H](CNc2ccc(Cl)c(-c3cc(NC(=O)[C@H]4CNCCO4)ncc3Cl)n2)CCO1 (single isomer, unassigned) [Example 156]
14 | 1 nM | COC[C@@H]1C[C@@H](C(=O)Nc2cc(-c3nc(NCC4CCOC(C)(C)C4)ccc3Cl)c(Cl)cn2)CN1 (stereo partly drawn) [Example 186, (3R,5S)-5-Methoxymethyl-pyrrolidine-3-carboxylic acid {3,5′-dichloro-6-[(2,2-dimethyl-tetrahydro-pyran-4-ylmethyl)-amino]-[2,4′]bipyridinyl-2′-yl}-amide]
15 | 6 nM | C[C@H]1CC[C@H](C(=O)Nc2cc(-c3cccc(NC[C@H]4CCOC(C)(C)C4)n3)c(Cl)cn2)CN1 (single isomer, unassigned) [Example 245]
16 | < 8 nM | CS(=O)(=O)N1CCC[C@H](C(=O)Nc2cc(-c3cccc(NCC4CCCOC4)n3)c(Cl)cn2)C1 (stereo partly drawn) [Example 81, (S)-1-Methanesulfonyl-piperidine-3-carboxylic acid {5′-chloro-6-[(tetrahydro-pyran-3-ylmethyl)-amino]-[2,4′]bipyridinyl-2′-yl}-amide]
17 | 1 nM | CC[C@@H]1CC[C@@H](C(=O)Nc2cc(-c3ccc(F)c(NCC4CCOCC4)n3)c(Cl)cn2)CN1 (racemic) [Example 250, (3R,6R)-/(3S,6S)-6-Ethyl-piperidine-3-carboxylic acid {5′-chloro-5-fluoro-6-[(tetrahydro-pyran-4-ylmethyl)-amino]-[2,4′]bipyridinyl-2′-yl}-amide]
18 | < 8 nM | O=C(Nc1cc(-c2cccc(NCC3CCOCC3)n2)ccn1)[C@@H]1CCCNC1 [Example 15, (R)-Piperidine-3-carboxylic acid {6-[(tetrahydro-pyran-4-ylmethyl)-amino]-[2,4′]bipyridinyl-2′-yl}-amide]
19 | 1 nM | CC1(C)C[C@@H](CNc2cccc(-c3cc(NC(=O)[C@@H]4CCNC4)ncc3Cl)n2)CCO1 [Example 260, (R)-Pyrrolidine-3-carboxylic acid {5′-chloro-6-[((S)-2,2-dimethyl-tetrahydro-pyran-4-ylmethyl)-amino]-[2,4′]bipyridinyl-2′-yl}-amide]
20 | 1 nM | CC1(C)COC[C@@H](CNc2cccc(-c3cc(NC(=O)[C@@H]4CCCNC4)ncc3Cl)n2)O1 (single isomer, unassigned) [Example 233]
21 | 1 nM | N#CC1(CNc2cccc(-c3cc(NC(=O)[C@@H]4CCCNC4)ncc3Cl)n2)CCOCC1 [Example 238, (R)-Piperidine-3-carboxylic acid {5′-chloro-6-[(4-cyano-tetrahydro-pyran-4-ylmethyl)-amino]-[2,4′]bipyridinyl-2′-yl}-amide]
22 | < 8 nM | O=C(Nc1cc(-c2cccc(NCC3CCS(=O)(=O)CC3)n2)c(Cl)cn1)[C@@H]1CCCNC1 [Example 12, (R)-piperidine-3-carboxylic acid {5′-chloro-6-[(1′,1′-dioxo-hexahydro-1-thiopyran-4-ylmethyl)-amino]-[2,4′]bipyridinyl-2′-yl}-amide]
23 | 2 nM | CC[C@@H]1CC[C@@H](C(=O)Nc2cc(-c3cccc(NCC4CCOCC4)n3)ccn2)CN1 (racemic) [Example 230, (3R,6R)-/(3S,6S)-6-Ethyl-piperidine-3-carboxylic acid {6-[(tetrahydro-pyran-4-ylmethyl)-amino]-[2,4′]bipyridinyl-2′-yl}-amide]

same assay, conditions: Cdk9_cyclinT1_IC50, generated using one of the two Cdk9/cyclinT1 assays (IMAP or Alpha Screen), not specified per value; ATP 6 uM

Row | IC50 | Structure (SMILES)
24 | 239 nM | COc1cncc(-c2cc(NC(=O)[C@@H]3CCCNC3)ncc2Cl)c1 [Example 307, (R)-Piperidine-3-carboxylic acid (5′-chloro-5-methoxy-[3,4′]bipyridinyl-2′-yl)-amide]
25 | 3 nM | O=C(Nc1cc(-c2cc(NCC3CCOCC3)cnc2Cl)c(Cl)cn1)[C@H]1CNCCO1 [Example 314, (R)-Morpholine-2-carboxylic acid {2,5′-dichloro-5-[(tetrahydro-pyran-4-ylmethyl)-amino]-[3,4′]bipyridinyl-2′-yl}-amide]
